Results published in ChEMBL document CHEMBL3596105, “Phospholipid derivatives of cladribine and fludarabine: synthesis and biological properties” (Bioorg Med Chem, 2015).
pIC50: −log10 of the molar value.

What was measured:
[1] = Antiproliferative activity against human MOLT3 cells assessed as cell growth inhibition after 48 hrs by MTT assay; format: functional, cell-based; conditions: MOLT-3, 48 h
[2] = system: K562; experiment: Antiproliferative activity against human K562 cells assessed as cell growth inhibition after 48 hrs by MTT assay; format: functional, cell-based; conditions: K562, 48 h
[3] = system: MCF7; experiment: Antiproliferative activity against human MCF7 cells assessed as cell growth inhibition after 48 hrs by MTT assay; format: functional, cell-based; conditions: MCF7, 48 h
[4] = Antiproliferative activity against human KG1 cells assessed as cell growth inhibition after 48 hrs by MTT assay; format: functional, cell-based; conditions: KG-1, 48 h
[5] = system: ZR-75-1; experiment: Antiproliferative activity against human ZR-75-1 cells assessed as cell growth inhibition after 48 hrs by MTT assay; format: functional, cell-based; conditions: ZR-75-1, 48 h
[6] = Antiproliferative activity against human SK-UT-1B cells assessed as cell growth inhibition after 48 hrs by MTT assay; format: functional, cell-based; conditions: Skut1B
[7] = system: HL-60; experiment: Antiproliferative activity against human HL60 cells assessed as cell growth inhibition after 48 hrs by MTT assay; format: functional, cell-based; conditions: HL-60, 48 h
[8] = system: Raji; experiment: Antiproliferative activity against human Raji cells assessed as cell growth inhibition after 48 hrs by MTT assay; format: functional, cell-based
[9] = Antiproliferative activity against human M-HeLa cells assessed as cell growth inhibition after 48 hrs by MTT assay; format: functional, cell-based
[10] = Antiproliferative activity against human KG1 cells assessed as cell growth inhibition after 72 hrs by MTT assay; format: functional, cell-based; conditions: KG-1, 72 h
[11] = system: K562; experiment: Antiproliferative activity against human K562 cells assessed as cell growth inhibition after 72 hrs by MTT assay; format: functional, cell-based; conditions: K562, 72 h
[12] = system: MCF7; experiment: Antiproliferative activity against human MCF7 cells assessed as cell growth inhibition after 72 hrs by MTT assay; format: functional, cell-based; conditions: MCF7, 72 h
[13] = system: HL-60; experiment: Antiproliferative activity against human HL60 cells assessed as cell growth inhibition after 72 hrs by MTT assay; format: functional, cell-based; conditions: HL-60, 72 h
[14] = system: Rattus norvegicus; experiment: Prodrug conversion in Wistar rat assessed as slow F-ara-A release into bloodstream at 72 mg/kg, ig administered as single dose by HPLC analysis; format: ADME, organism-based; conditions: in vivo, po
[15] = system: Rattus norvegicus; experiment: Prodrug conversion in Wistar rat assessed as smooth increase in F-ara-A concentration in serum at 72 mg/kg, ig administered as single dose by HPLC analysis; format: ADME, organism-based; conditions: in vivo, po
[16] = system: Rattus norvegicus; experiment: Prodrug conversion in Wistar rat assessed as prolonged serum circulation of liberated F-ara-A at 72 mg/kg, ig administered as single dose by HPLC analysis; format: ADME, organism-based; conditions: in vivo, po
[17] = system: Mus musculus; experiment: Cmax in ICR mouse assessed as F-ara-A concentration at 120.4 mg/kg, ig administered as single dose by HPLC analysis; format: ADME, organism-based; design: dose 120.4 mg/kg, route intragastric; conditions: in vivo, po
[18] = system: Mus musculus; experiment: Tmax in ICR mouse assessed as F-ara-A concentration at 120.4 mg/kg, ig administered as single dose by HPLC analysis; format: ADME, organism-based; conditions: in vivo, po
[19] = system: Mus musculus; experiment: Apparent half-life in ICR mouse assessed as F-ara-A content at 120.4 mg/kg, ig administered as single dose by HPLC analysis; format: ADME, organism-based; conditions: in vivo, po
[20] = system: Mus musculus; experiment: Cmin in ICR mouse assessed as F-ara-A concentration at 120.4 mg/kg, ig administered as single dose after 24 hrs by HPLC analysis; format: ADME, organism-based; conditions: in vivo, po
[21] = Antiproliferative activity against human RPMI8226 cells assessed as cell growth inhibition after 48 hrs by MTT assay; format: functional, cell-based; conditions: RPMI-8226, 48 h
[22] = Antiproliferative activity against human SKHEP1 cells assessed as cell growth inhibition after 48 hrs by MTT assay; format: functional, cell-based; conditions: SK-HEP1, 48 h
[23] = system: Rattus norvegicus; experiment: Prodrug conversion in Wistar rat assessed as slow F-ara-A release into bloodstream at 77 mg/kg, ig administered as single dose by HPLC analysis; format: ADME, organism-based; conditions: in vivo, po
[24] = system: Rattus norvegicus; experiment: Prodrug conversion in Wistar rat assessed as smooth increase in F-ara-A concentration in serum at 77 mg/kg, ig administered as single dose by HPLC analysis; format: ADME, organism-based; conditions: in vivo, po
[25] = system: Rattus norvegicus; experiment: Prodrug conversion in Wistar rat assessed as prolonged serum circulation of liberated F-ara-A at 77 mg/kg, ig administered as single dose by HPLC analysis; format: ADME, organism-based; conditions: in vivo, po
[26] = system: Mus musculus; experiment: Cmax in ICR mouse assessed as F-ara-A concentration at 50 mg/kg, ig administered as single dose by HPLC analysis; format: ADME, organism-based; design: dose 50 mg/kg, route intragastric; conditions: in vivo, po
[27] = system: Mus musculus; experiment: Tmax in ICR mouse assessed as F-ara-A concentration at 50 mg/kg, ig administered as single dose by HPLC analysis; format: ADME, organism-based; conditions: in vivo, po
[28] = system: Mus musculus; experiment: Apparent half-life in ICR mouse assessed as F-ara-A content at 50 mg/kg, ig administered as single dose by HPLC analysis; format: ADME, organism-based; conditions: in vivo, po
[29] = system: Mus musculus; experiment: Cmin in ICR mouse assessed as F-ara-A concentration at 50 mg/kg, ig administered as single dose after 24 hrs by HPLC analysis; format: ADME, organism-based; conditions: in vivo, po
[30] = system: ZR-75-1; experiment: Antiproliferative activity against human ZR-75-1 cells assessed as cell growth inhibition after 72 hrs by MTT assay; format: functional, cell-based; conditions: ZR-75-1, 72 h
[31] = Antiproliferative activity against human SK-UT-1B cells assessed as cell growth inhibition after 72 hrs by MTT assay; format: functional, cell-based; conditions: Skut1B
[32] = Antiproliferative activity against human M-HeLa cells assessed as cell growth inhibition after 72 hrs by MTT assay; format: functional, cell-based

| Structure (SMILES) | pIC50 [2] | pIC50 [3] | pIC50 [7] | pIC50 [8] | pIC50 [1] | pIC50 [4] | pIC50 [5] | pIC50 [6] | pIC50 [9] | pIC50 [10] | also measured |
| --- | --- | --- | --- | --- | --- | --- | --- | --- | --- | --- | --- |
| CCCCCCCCCCCCCCCC(=O)OCC(COC(=O)CCCCCCCCCCCCCCC)OP(=O)(O)OC[C@H]1O[C@@H](n2cnc3c(N)nc(Cl)nc32)C[C@@H]1O | < 4.00 | < 4.00 | – | – | < 4.00 | – | – | – | – | – | – |
| CCCCCCCCCCCCCC(=O)OCC(COP(=O)([O-])OC[C@H]1O[C@@H](n2cnc3c(N)nc(F)nc32)[C@@H](O)[C@@H]1O)OC(=O)CCCCCCCCCCCCC.[Na+] (some centres not stated) | 4.35 | 4.35 | 4.52 | < 4.00 | < 4.00 | 4.26 | < 4.00 | < 4.00 | < 4.00 | 5.05 | pIC50 [11]: < 4.00; pIC50 [12]: 4.74; pIC50 [13]: 4.80; Drug metabolism [14]: metabolite_detected; Drug metabolism [15]: metabolite_detected; Drug metabolism [16]: metabolite_detected; Cmax [17]: 1613 ng/mL; Tmax [18]: 2.8 h; t1/2(app) [19]: 14.2 h; Cmin [20]: 199 ng/mL |
| Nc1nc(Cl)nc2c1ncn2[C@H]1C[C@H](O)[C@@H](CO)O1 [CLADRIBINE] | 5.00 | 4.35 | – | – | 5.64 | 6.70 | < 4.00 | 6.00 | – | – | pIC50 [21]: 5.22; pIC50 [22]: 5.40 |
| CCCCCCCCCCCCCC(=O)OCC(COC(=O)CCCCCCCCCCCCC)OP(=O)(O)OC[C@H]1O[C@@H](n2cnc3c(N)nc(Cl)nc32)C[C@@H]1O | < 4.00 | < 4.00 | – | – | < 4.00 | – | – | – | – | – | – |
| CCCCCCCCCCCCCCCC(=O)OCC(COP(=O)([O-])OC[C@H]1O[C@@H](n2cnc3c(N)nc(F)nc32)[C@@H](O)[C@@H]1O)OC(=O)CCCCCCCCCCCCCCC.[Na+] (some centres not stated) | < 4.00 | < 4.00 | < 4.00 | < 4.00 | < 4.00 | < 4.00 | < 4.00 | < 4.00 | < 4.00 | 4.12 | Drug metabolism [23]: metabolite_detected; Drug metabolism [24]: metabolite_detected; Drug metabolism [25]: metabolite_detected |
| CCCCCCCCCCCCCC(=O)OCC(COC(=O)CCCCCCCCCCCCC)OP(=O)([O-])OC[C@H]1O[C@@H](n2cnc3c(N)nc(F)nc32)[C@@H](O)[C@@H]1O.[Na+] | 4.12 | < 4.00 | 4.10 | < 4.00 | < 4.00 | < 4.00 | < 4.00 | < 4.00 | < 4.00 | 4.46 | pIC50 [11]: < 4.00; pIC50 [12]: 4.35; pIC50 [30]: 4.12; pIC50 [31]: 4.26; pIC50 [13]: 4.19; pIC50 [32]: 4.35; Drug metabolism [14]: metabolite_detected; Drug metabolism [15]: metabolite_detected; Drug metabolism [16]: metabolite_detected |

Continued, in another order:

| pIC50 [2] | pIC50 [3] | pIC50 [7] | pIC50 [8] | Structure (SMILES) | pIC50 [1] | pIC50 [4] | pIC50 [5] | pIC50 [6] | pIC50 [9] | pIC50 [10] | also measured |
| --- | --- | --- | --- | --- | --- | --- | --- | --- | --- | --- | --- |
| < 4.00 | < 4.00 | – | – | CCCCCCCCCCCCCCCC(=O)OCC(COP(=O)(O)OC[C@H]1O[C@@H](n2cnc3c(N)nc(Cl)nc32)C[C@@H]1O)OC(=O)CCCCCCCCCCCCCCC (some centres not stated) | < 4.00 | – | – | – | – | – | – |
| < 4.00 | < 4.00 | < 4.00 | < 4.00 | CCCCCCCCCCCCCCCC(=O)OCC(COC(=O)CCCCCCCCCCCCCCC)OP(=O)([O-])OC[C@H]1O[C@@H](n2cnc3c(N)nc(F)nc32)[C@@H](O)[C@@H]1O.[Na+] | < 4.00 | < 4.00 | < 4.00 | < 4.00 | < 4.00 | – | Drug metabolism [23]: metabolite_detected; Drug metabolism [24]: metabolite_detected; Drug metabolism [25]: metabolite_detected |
| 6.40 | 6.89 | 7.05 | 6.40 | Nc1nc(F)nc2c1ncn2[C@@H]1O[C@H](COP(=O)(O)O)[C@@H](O)[C@@H]1O [FLUDARABINE PHOSPHATE] | 6.02 | 6.82 | 6.22 | 5.22 | 5.70 | – | Cmax [26]: 8989 ng/mL; Tmax [27]: 0.9 h; t1/2(app) [28]: 1.5 h; Cmin [29]: 13 ng/mL |
| 4.30 | < 4.00 | – | – | CCCCCCCCCCCCCC(=O)OCC(COP(=O)(O)OC[C@H]1O[C@@H](n2cnc3c(N)nc(Cl)nc32)C[C@@H]1O)OC(=O)CCCCCCCCCCCCC (some centres not stated) | 5.10 | 4.77 | < 4.00 | < 4.00 | – | – | pIC50 [21]: < 4.00; pIC50 [22]: < 4.00 |
